Data reported in ChEMBL document CHEMBL5257030, “Antioxidant, anticancer activities and mechanistic studies of the flavone glycoside diosmin and its oxidovanadium(IV) complex. Interactions with bovine serum albumin” (Bioorg Med Chem, 2016).
Activity calls are given as the source filed them. The calls are words filed in the database; no cut-off is given here.

Key:
[1] = Antioxidant activity assessed as reduction in PMS induced superoxide anion activity preincubated for 15 mins followed by PMS addition and measured after 5 mins by NBT assay; type: functional; details: time 20.0 min
[2] = Antioxidant activity assessed as DPPH radical scavenging activity at 100 uM incubated for 60 mins in dark relative to control; type: functional
[3] = Antioxidant activity assessed as reduction in ascorbate-iron-H2O2-mediated hydroxy radical generation at 100 uM after 30 mins by thiobarbituric acid method; type: functional
[4] = Antioxidant activity assessed as delay in time of AAPH-induced pyranine consumption at 100 uM by spectrophotometric analysis; type: functional
A549 [5] = test: Cytotoxicity against human A549 cells assessed as reduction in cell viability up to 100 uM measured after 24 hrs by crystal violet staining based assay; type: functional
A549 [6] = test: Cytotoxicity in human A549 cells assessed as increase in DHR123 oxidation to form rhodamine 123 measured after 30 mins by fluorescence spectroscopy; type: functional, cell-based
MDA-MB-231 [7] = test: Antiproliferative activity against human MDA-MB-231 cells assessed as inhibition of cell growth measured after 24 hrs by MTT assay; type: functional, cell-based; details: MDA-MB-231, 24 h
SK-BR-3 [8] = test: Antiproliferative activity against human SK-BR-3 cells assessed as inhibition of cell growth measured after 24 hrs by MTT assay; type: functional, cell-based; details: SK-BR-3, 24 h
T47D [9] = test: Antiproliferative activity against human T47D cells assessed as inhibition of cell growth measured after 24 hrs by MTT assay; type: functional, cell-based
T47D [10] = test: Cytotoxicity against human T47D cells assessed as ROS production at 10 uM after 24 hrs by CMH2DCFDA probe-based fluorescence assay relative to control; type: functional
T47D [11] = test: Cytotoxicity against human T47D cells assessed as disruption of mitochondrial membrane potential by measuring TMRM level in mitochondria at 10 uM after 24 hrs by fluorescence assay relative to control; type: functional
T47D [12] = test: Cytotoxicity against human T47D cells assessed as caspase3/7 activation at 10 uM after 24 hrs by fluorescence assay relative to control; type: functional
SK-BR-3 [13] = test: Cytotoxicity against human SK-BR-3 cells assessed as ROS production at 10 uM after 24 hrs by CMH2DCFDA probe-based fluorescence assay relative to control; type: functional
SK-BR-3 [14] = test: Cytotoxicity against human SK-BR-3 cells assessed as disruption of mitochondrial membrane potential by measuring TMRM level in mitochondria at 10 uM after 24 hrs by fluorescence assay relative to control; type: functional
SK-BR-3 [15] = test: Cytotoxicity against human SK-BR-3 cells assessed as caspase3/7 activation at 10 uM after 24 hrs by fluorescence assay relative to control; type: functional
MDA-MB-231 [16] = test: Cytotoxicity against human MDA-MB-231 cells assessed as ROS production at 10 uM after 24 hrs by CMH2DCFDA probe-based fluorescence assay relative to control; type: functional
MDA-MB-231 [17] = test: Cytotoxicity against human MDA-MB-231 cells assessed as disruption of mitochondrial membrane potential by measuring TMRM level in mitochondria at 10 uM after 24 hrs by fluorescence assay relative to control; type: functional
MDA-MB-231 [18] = test: Cytotoxicity against human MDA-MB-231 cells assessed as caspase3/7 activation at 10 uM after 24 hrs by fluorescence assay relative to control; type: functional
Albumin [19] = biological target: T1, Albumin (Bos taurus, UniProt P02769); test: Binding affinity to bovine serum albumin assessed as Stem-Volmer quenching constant at 298 K after 1 hr by luminescence spectrometric analysis; details: cattle
T1 sequence (P02769 whole entry): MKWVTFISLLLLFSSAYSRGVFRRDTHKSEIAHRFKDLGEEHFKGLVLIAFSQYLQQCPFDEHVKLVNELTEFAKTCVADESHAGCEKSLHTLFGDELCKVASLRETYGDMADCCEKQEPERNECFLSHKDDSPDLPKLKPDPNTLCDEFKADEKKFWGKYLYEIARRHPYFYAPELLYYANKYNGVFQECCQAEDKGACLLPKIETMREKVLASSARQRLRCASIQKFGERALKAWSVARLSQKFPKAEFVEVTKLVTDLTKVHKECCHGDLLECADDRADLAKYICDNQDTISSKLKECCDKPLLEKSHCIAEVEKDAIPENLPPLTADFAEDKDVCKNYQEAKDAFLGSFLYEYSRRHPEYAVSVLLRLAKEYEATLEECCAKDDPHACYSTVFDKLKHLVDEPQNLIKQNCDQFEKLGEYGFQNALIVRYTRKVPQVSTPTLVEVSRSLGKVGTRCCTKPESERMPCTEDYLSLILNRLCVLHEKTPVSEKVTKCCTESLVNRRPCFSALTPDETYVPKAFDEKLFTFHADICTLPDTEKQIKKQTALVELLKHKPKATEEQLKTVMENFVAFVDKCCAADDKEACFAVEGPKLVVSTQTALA

Albumin [20] = biological target: T1, Albumin; test: Binding affinity to bovine serum albumin assessed as Stem-Volmer quenching constant at 303 K after 1 hr by luminescence spectrometric analysis; details: cattle
Albumin [21] = biological target: T1, Albumin; test: Binding affinity to bovine serum albumin assessed as Stem-Volmer quenching constant at 310 K after 1 hr by luminescence spectrometric analysis; details: cattle
Albumin [22] = biological target: T1, Albumin; test: Binding affinity to bovine serum albumin assessed as quenching rate constant at 298 K after 1 hr by luminescence spectrometric analysis; details: cattle
Albumin [23] = biological target: T1, Albumin; test: Binding affinity to bovine serum albumin assessed as quenching rate constant at 303 K after 1 hr by luminescence spectrometric analysis; details: cattle
Albumin [24] = biological target: T1, Albumin; test: Binding affinity to bovine serum albumin assessed as quenching rate constant at 310 K after 1 hr by luminescence spectrometric analysis; details: cattle
Albumin [25] = biological target: T1, Albumin; test: Binding affinity to bovine serum albumin assessed as association constant at 298 K after 1 hr by luminescence spectrometric analysis; details: cattle
Albumin [26] = biological target: T1, Albumin; test: Binding affinity to bovine serum albumin assessed as association constant at 303 K after 1 hr by luminescence spectrometric analysis; details: cattle
Albumin [27] = biological target: T1, Albumin; test: Binding affinity to bovine serum albumin assessed as association constant at 310 K after 1 hr by luminescence spectrometric analysis; details: cattle
A549 [28] = test: Antiproliferative activity against human A549 cells after 72 hrs by Alamar blue assay; type: functional, cell-based; details: A549, 72 h
Albumin [29] = biological target: T1, Albumin; test: Binding affinity to bovine serum albumin assessed as change in enthalpy; details: cattle
Albumin [30] = biological target: T1, Albumin; test: Binding affinity to bovine serum albumin assessed as free energy change at 298 K; details: cattle
Albumin [31] = biological target: T1, Albumin; test: Binding affinity to bovine serum albumin assessed as free energy change at 303 K; details: cattle
Albumin [32] = biological target: T1, Albumin; test: Binding affinity to bovine serum albumin assessed as free energy change at 310 K; details: cattle

IC50 (MDA-MB-231 [7]): 70 µM
IC50 (SK-BR-3 [8]): > 100 µM
IC50 (T47D [9]): > 100 µM
KSV (Albumin [19]): 3.08 10^4L/mol
KSV (Albumin [20]): 1.95 10^4L/mol
KSV (Albumin [21]): 1.18 10^4L/mol
Kq (Albumin [22]): 3.08 10^12L/mol/s
Kq (Albumin [23]): 1.95 10^12L/mol/s
Kq (Albumin [24]): 1.18 10^12L/mol/s
Ka (Albumin [25]): 1.84 10^4L/mol
Ka (Albumin [26]): 0.88 10^4L/mol
Ka (Albumin [27]): 0.19 10^4L/mol
IC50 (A549 [28]): > 40 µM
deltaH (Albumin [29]): -146.68 kJ/mol
deltaG (Albumin [30]): -24.53 kJ/mol
deltaG (Albumin [31]): -22.48 kJ/mol
deltaG (Albumin [32]): -19.61 kJ/mol
Compound: COc1ccc(-c2cc(=O)c3c(O)cc(O[C@@H]4O[C@H](CO[C@@H]5O[C@@H](C)[C@H](O)[C@@H](O)[C@H]5O)[C@@H](O)[C@H](O)[C@H]4O)cc3o2)cc1O [DIOSMIN]
Activity [1]: inactive
Activity [2]: 14%
Activity [3]: inactive
TIME [4]: 0.0233 h
Activity (A549 [5]): inactive
Activity (A549 [6]): inactive
Activity (T47D [10]): 105%
Activity (T47D [11]): 96%
Activity (T47D [12]): 99%
Activity (SK-BR-3 [13]): 104%
Activity (SK-BR-3 [14]): 78%
Activity (SK-BR-3 [15]): 116%
Activity (MDA-MB-231 [16]): 110%
Activity (MDA-MB-231 [17]): 104%
Activity (MDA-MB-231 [18]): 106%
